Values of other authors as cited in US9504728B2, “Dosage form” (priority 2011, dated 2016).
Where two headings read alike, the source gives them in different places.

Tests used:
[1] = system: HIV-1; details: Steyn et al., 2006, cited from earlier work
[2] = system: HBV; details: Ptak et al. 2008; read-out: IC50 against HBV; cited from earlier work

**Q.** For `C/C=C/C[C@@H](C)[C@@H](O)[C@H]1C(=O)N[C@@H](CC)C(=O)N(C)[C@H](C)C(=O)N(CC)[C@@H](C(C)C)C(=O)N[C@@H](C(C)C)C(=O)N(C)[C@@H](CC(C)C)C(=O)N[C@@H](C)C(=O)N[C@H](C)C(=O)N(C)[C@@H](CC(C)C)C(=O)N(C)[C@@H](CC(C)C)C(=O)N(C)[C@@H](C(C)C)C(=O)N1C` [DEBIO-025], which “reduction of HIV-1 RNA levels” value ([1]; in nine patients) is on record?
**A.** ≥ 0.5 log 10 copies/mL

**Q.** What about the “reduction of HIV-1 RNA levels” value ([1]; in two patients) of the same compound?
**A.** > 1 log 10 copies/mL

**Q.** And the IC50 [2]?
**A.** 4.1 µM
